# PubChem BioAssay (NCI)
#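 Test compounds were applied to cells in 96-well plates for 48 hours at 5 doses. GI50 marks 50% less growth. The concentration for full growth arrest is given as TGI.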
# How the values were obtained:
# Assay in all cases: NCI tumour cell line growth inhibition, 48 h
# A549 NSCLC = tested on: A549 NSCLC
# HT29 colon = tested on: HT29 colon
# M14 melanoma = tested on: M14 melanoma
# MOLT-4 leukemia = tested on: MOLT-4 leukemia
# RPMI-8226 leukemia = tested on: RPMI-8226 leukemia
# SK-OV-3 ovarian = tested on: SK-OV-3 ovarian
# U251 CNS = tested on: U251 CNS
# KM12 colon = tested on: KM12 colon
# NCI-H226 lung = tested on: NCI-H226 lung
# SK-MEL-5 melanoma = tested on: SK-MEL-5 melanoma
Compound,TGI (A549 NSCLC) [µM],TGI (HT29 colon) [µM],TGI (M14 melanoma) [µM],TGI (MOLT-4 leukemia) [µM],TGI (RPMI-8226 leukemia) [µM],TGI (SK-OV-3 ovarian) [µM],TGI (U251 CNS) [µM],TGI (KM12 colon) [µM],TGI (NCI-H226 lung) [µM],TGI (SK-MEL-5 melanoma) [µM],GI50 (A549 NSCLC) [µM],GI50 (HT29 colon) [µM],GI50 (KM12 colon) [µM],GI50 (M14 melanoma) [µM],GI50 (MOLT-4 leukemia) [µM],GI50 (NCI-H226 lung) [µM],GI50 (RPMI-8226 leukemia) [µM],GI50 (SK-MEL-5 melanoma) [µM],GI50 (SK-OV-3 ovarian) [µM],GI50 (U251 CNS) [µM]
CCOC(=O)C1(Cc2ccc3ccccc3c2)CCCCCN1 (configuration not stated),> 100,26.9,48.1,90.7,27.6,> 100,> 100,,,,,,,,,,,,,
Cc1cccc(N=C2NC(=O)C(CC(=O)Nc3ccc(Cl)cc3C)S2)c1 (configuration not stated),> 100,> 100,> 100,> 100,> 100,> 100,,> 100,> 100,> 100,,,,,,,,,,
CC12C(=O)N(CCN)C(=O)C1C1c3ccccc3C2c2ccccc21 (configuration not stated),> 100,> 100,> 100,> 100,> 100,> 100,> 100,> 100,> 100,> 100,,,,,,,,,,
C=C=[CH][Sn]([c]1ccccc1)([c]1ccccc1)[c]1ccccc1,4.42,2.45,3.47,6.49,4.36,4.73,3.16,2.95,4.6,3.09,1.91,1.21,1.49,1.81,1.14,2.28,1.4,1.56,2.15,1.66
COc1ccc(-n2sc(=O)n(Cc3ccc(COC(=O)C(C)c4ccc(CC(C)C)cc4)cc3)c2=O)cc1 (configuration not stated),25.9,16.1,9.45,3.89,4.11,50,14.5,14.6,33.2,14.5,9.56,2.12,7.7,2.6,1.21,11.9,1.51,7.41,28,6.83
CCN1C(=O)N(CC)C2C1NN=c1s/c(=C\c3ccccc3)c(=O)n12 (configuration not stated),> 100,> 42.2,> 100,> 100,> 72.4,> 100,> 100,> 100,> 100,6.11,0.305,0.0989,0.0705,0.104,0.42,27.6,0.389,0.147,0.311,0.316
CSc1ccc(C2=NN(C(=O)c3ccc(N)cc3)C(c3ccc(F)cc3)C2)cc1 (configuration not stated),32.7,17.5,15.1,38.2,4.41,31.7,12.6,4.55,29.6,18.8,13.7,3.72,2.03,4.24,10.5,11,1.88,5.66,16.2,3.56
CS[C@@]1(C(=O)Nc2ccc3[nH]nc(-c4ccc(OC(C)C)nc4)c3c2)CCN(CC(=O)N2CC=C(c3ccc(-c4ncn(C)n4)cc3)CC2)C1,> 100,> 100,,> 100,> 100,> 100,> 100,> 100,> 100,> 89.9,1.6,0.0368,0.929,0.032,5.26,> 100,2.21,1.03,> 100,1.65
CCOC(=O)N1CCC(=O)C[C@@H]1C/C=C/P1(=O)O[C@H](c2ccccc2)C(C)N1C(C)C (some centres not stated),> 100,> 100,,> 100,> 100,> 100,> 100,> 100,> 100,> 100,,,,,,,,,,
O=C(/C=C/c1ccc(Cl)c(Cl)c1)C1CCC(Cl)CC1 (configuration not stated),46.8,31.7,33.4,,21,33,28.3,46.1,94.8,33.4,,,,,,,,,,
Nn1c(N=Nc2c(O)[nH]c3ccccc23)n[nH]c1=S,> 100,> 100,> 100,> 100,> 100,> 100,> 100,> 100,> 100,,,,,,,,,,,
N#Cc1c(Oc2ccc(F)c(NC(=O)Cc3cccc(C(F)(F)F)c3)c2)ccc2nc(NC(=O)C3CC3)sc12,> 100,> 100,2.95,> 100,> 100,> 100,> 100,> 100,> 100,8.6,0.703,0.0533,0.765,0.0275,0.673,0.838,0.72,0.206,1.93,0.491
CON,> 100,> 100,> 100,> 100,> 100,> 100,> 100,> 100,> 100,> 100,> 100,> 100,> 100,> 100,> 100,> 100,> 100,> 100,> 100,> 100
COC(=O)C1=Cc2c(OC)cc(OC)c(OC)c2[C@H](c2cc(OC)c(OC)cc2OC)C1C(=O)OC (some centres not stated),> 100,> 100,> 100,> 100,> 100,> 100,> 100,> 100,> 100,> 100,,,,,,,,,,
COc1ccc(-c2cncn2-c2cc(OC)c(OC)c(OC)c2)cc1F,> 100,> 38.6,0.141,> 100,12.2,57.2,> 100,> 49.8,> 100,13.1,< 0.0348,< 0.01,< 0.01,< 0.01,< 0.0283,21.5,< 0.01,< 0.01,< 0.0486,< 0.0266
